According to patent US20070093673A1, “Boron-containing compounds, uses and preparation thereof” (priority 2005, published 2007):
Blank lines part the entries; values can stand above or below the molecule they belong to.

Experiments:
Pain and/or Inflammation = test: Tests on various subjects: cream applied to the inflamed skin area for pain and/or inflammation; assay type: in vivo, human; design: key to Pain Condition After Last Application: CD: complete disappearance of pain; RP: residual pain (i.e.: equivalent to mild pain intensity); key to Pain Intensity After Application: No pain: 0; Mild pain: +; Moderate pain: ++; Severe pain: +++ (i.e.: interference with sleep and/or day's activities)
Method: Compound 1, and more particularly Composition 1, was tested on several subjects so as to verify its activity as anti-inflammatory agent and/or analgesic. As it can be seen from Table 1, test subjects having various inflammations or pain have been treated with Composition 1. In each case, a small amount of Composition 1, in the form of a cream, was applied to inflammated skin area by means of a short gentle rub.
All data were provided under testimony of all volunteers.
M: male • a) Pain intensity rating: • No pain: 0 • Mild pain: + • Moderate pain: ++ • Severe pain: +++ (i.e.: interference with sleep and/or day's activities). • b) Pain condition after the last application of Compound 1. • CD: complete disappearance of pain. • RP: residual pain (i.e.: equivalent to mild pain intensity).

[1] = solubility in water of Compound 1; assay type: physicochemical
Excerpt: The mass spectroscopy analysis (electrospray/scanning) using a Micromass quattra ll triple quadrupole mass spectrometer with a GC and HPLC interface, confirmed the previously illustrated formula for Compound 1. Analysis of Compound 1 was done by mass spectroscopy, positive mode, preparation of samples in 2% acetonitrile-98% methanol. […] The product observed was the following: B3C3H11O9 (223.5 g per mole). […] The purity of the obtained product was>98 % (confirmed by 500 MHz ^1H NMR analysis) and the solubility in water was at maximum 7% w/w, yielding a clear colorless solution.
An analysis of Compound 1, prepared by using metaboric acid and glycerol, was conducted under the same condition as for Compound 1 with boric acid and glycerol. […] The product observed was the following: B3C3H11O9 (223.5 g per mole). […] When compared to Compound 1 prepared from boric acid and glycerol, the purity and solubility of the obtained product were similar i.e. a purity of ≈98% with solubility in water at maximum of 7% w/w, yielding a colorless solution.

[2] = all four subjects with chronic diseases, after application

Structure (SMILES): CC(=O)Oc1ccccc1C(=O)O [Aspirin®, acetylsalicylic acid, reference compound]
gastric adverse effect that prompted discontinuation (Pain and/or Inflammation; medications taken in the past by the volunteers, testimony): severe gastric burning sensation

solubility in water ([1]; Compound 1 prepared from boric acid and glycerol, clear colorless solution): ≤ 7 % w/w | solubility in water ([1]; Compound 1 prepared from metaboric acid and glycerol, colorless solution): ≤ 7 % w/w
Structure (SMILES): OB(O)OCC(COB(O)O)OB(O)O [Compound 1]
subjects with total disappearance of pain (Pain and/or Inflammation; 30 minutes after application of the cream containing Compound 1): Four subjects out of six | complete loss of stiffness (Pain and/or Inflammation; [2]): within four four hours | reduced sensation of stiffness (Pain and/or Inflammation; [2]): within two hours | time to complete relief of the pain after the application (Pain and/or Inflammation; four subjects with chronic lower back pain, fibromyalgia or arthritis): approximately 30 minutes | pain after last application, all subjects (Pain and/or Inflammation; including three out of six who required a maximum of three applications): complete disappearance of pain for all subjects | time to relapse of pain (Pain and/or Inflammation; one out of four subjects with chronic disease, who required three applications): approximately 12 hours | pain intensity, all volunteers (Pain and/or Inflammation; six volunteers, topical cream): reduced pain intensity for all volunteers | loss of swelling at joints and of tenderness sensation (Pain and/or Inflammation; subjects with fibromyalgia and arthritis): approximately the same time-frames as reported earlier for stiffness | time to complete disappearance of pain (Pain and/or Inflammation; two subjects with an injury to a leg): within three days | effect compared with medications taken in the past for the same chronic afflictions (Pain and/or Inflammation; versus acetaminophen/Tylenol, acetaminophen-codeine/Empracet or acetylsalicylic acid/Aspirin, testimony of volunteers): higher than medications taken in the past | Pain Condition After Last Application (Pain and/or Inflammation; volunteer D-123-S, injury, leg, 3 applications): CD | Pain Intensity After Application (Pain and/or Inflammation; volunteer D-123-S, injury, leg, before application ++, 3 applications, topical cream): + | Time to Pain Relief (Pain and/or Inflammation; volunteer D-123-S, injury, leg, before application ++, topical cream): 0.5 h | Pain Condition After Last Application (Pain and/or Inflammation; volunteer D-321-J, fibromyalgia, hands, 1 application): CD* | Pain Intensity After Application (Pain and/or Inflammation; volunteer D-321-J, fibromyalgia, hands, before application +++, 1 application, topical cream): 0 | Time to Pain Relief (Pain and/or Inflammation; volunteer D-321-J, fibromyalgia, hands, before application +++, topical cream): 0.5 h | Pain Condition After Last Application (Pain and/or Inflammation; volunteer D-457-D, fibromyalgia, hands & feet, 1 application): CD* | Pain Intensity After Application (Pain and/or Inflammation; volunteer D-457-D, fibromyalgia, hands & feet, before application ++, 1 application, topical cream): 0 | Time to Pain Relief (Pain and/or Inflammation; volunteer D-457-D, fibromyalgia, hands & feet, before application ++, topical cream): 0.5 h | Pain Condition After Last Application (Pain and/or Inflammation; volunteer D-633-J, lower back pain, musculoskeletal, 1 application): CD* | Time to Pain Relief (Pain and/or Inflammation; volunteer D-633-J, lower back pain, musculoskeletal, before application ++, topical cream): 0.5 h | Pain Intensity After Application (Pain and/or Inflammation; volunteer D-633-J, lower back pain, musculoskeletal, lower back, central, before application ++, 1 application, topical cream): 0 | Pain Condition After Last Application (Pain and/or Inflammation; volunteer D-701, arthritis, wrists, 3 applications): CD | Time to Pain Relief (Pain and/or Inflammation; volunteer D-701, arthritis, wrists, before application ++, topical cream): 0.5 h | Pain Intensity After Application (Pain and/or Inflammation; volunteer D-942-L, injury, leg, before application +++, 3 applications, topical cream): ++ | Pain Condition After Last Application (Pain and/or Inflammation; volunteer D-942-L, injury, leg, 3 applications): CD | Time to Pain Relief (Pain and/or Inflammation; volunteer D-942-L, injury, leg, before application +++, topical cream): 8.0 h
